Data from patent publication US6479435B1, “Diaryl ethers and processes for their preparation and herbicidal and desiccant compositions containing them” (ISK Americas Incorporated, priority 1997, dated 2002).

Assays:
Assay in all cases: Post-emerge greenhouse herbicide test, phytotoxicity rating
Format in all cases: in vivo
[1] = system: velvetleaf (Abutilon theophrasti, ABUTH); conditions: Abutilon theophrasti, post-emergence, 336 h, 14 days after application, scale 0-100; for pest or weed control at 63 g/ha: rate 63 g ai/ha; for pest or weed control at 500 g/ha: rate 500 g ai/ha
In short: (§1)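 Scores use a 0 (no damage) to 100 (complete kill) scale, taken 14 days after a foliar spray. Acetone solutions with 0.25% v/v non-ionic surfactant were applied by track sprayer at 187 l/ha and 63-1000 g ai/ha to bottom-watered 2-3 leaf plants.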

[2] = system: ivyleaf morningglory (Ipomoea hederacea, IPOHE); conditions: Ipomoea, post-emergence, 336 h, 14 days after application, scale 0-100; for pest or weed control at 63 g/ha: rate 63 g ai/ha; for pest or weed control at 500 g/ha: rate 500 g ai/ha
In short: as §1

[3] = system: barnyardgrass (Echinochloa crusgalli, ECHCG); conditions: Echinochloa crus-galli, post-emergence, 336 h, 14 days after application, scale 0-100; for pest or weed control at 63 g/ha: rate 63 g ai/ha; for pest or weed control at 500 g/ha: rate 500 g ai/ha
In short: as §1

Nn1c(C(F)(F)F)cc(=O)n(-c2cc(Oc3ccc(Br)cn3)c(Cl)cc2F)c1=O [Compound 9-2, 1-Amino-3-[4-chloro-2-fluoro-5-(5-bromo-2-pyridyloxy)phenyl]-6-trifluoromethyl-1,2,3,4-tetrahydropyrimidine-2,4-dione]
pest or weed control at 63 g/ha [1]: 100%
pest or weed control at 500 g/ha [1]: 100%
pest or weed control at 63 g/ha [2]: 100%
pest or weed control at 500 g/ha [2]: 80%
pest or weed control at 63 g/ha [3]: 10%
pest or weed control at 500 g/ha [3]: 80%

Nn1c(C(F)(F)F)cc(=O)n(-c2cc(Oc3ccc(Cl)cn3)c(Cl)cc2F)c1=O [Compound 9-3, 1-Amino-3-[4-chloro-2-fluoro-5-(5-chloro-2-pyridyloxy)phenyl]-6-trifluoromethyl-1,2,3,4-tetrahydropyrimidine-2,4-dione]
pest or weed control at 63 g/ha [1]: 100%
pest or weed control at 500 g/ha [1]: 100%
pest or weed control at 63 g/ha [2]: 100%
pest or weed control at 500 g/ha [2]: 100%
pest or weed control at 63 g/ha [3]: 0%
pest or weed control at 500 g/ha [3]: 90%

Nn1c(C(F)(F)F)cc(=O)n(-c2cc(Oc3cccc(Cl)n3)c(Cl)cc2F)c1=O [Compound 9-5, 1-Amino-3-[4-chloro-2-fluoro-5-(6-chloro-2-pyridyloxy)phenyl]-6-trifluoromethyl-1,2,3,4-tetrahydropyrimidine-2,4-dione]
pest or weed control at 63 g/ha [1]: 90%
pest or weed control at 500 g/ha [1]: 100%
pest or weed control at 63 g/ha [2]: 100%
pest or weed control at 500 g/ha [2]: 90%
pest or weed control at 63 g/ha [3]: 20%
pest or weed control at 500 g/ha [3]: 100%

Nn1c(C(F)(F)F)cc(=O)n(-c2cc(Oc3nc(F)c(F)cc3F)c(Cl)cc2F)c1=O [Compound 9-6, 1-Amino-3-[4-chloro-2-fluoro-5-(3,5,6-trifluoro-2-pyridyloxy)phenyl]-6-trifluoromethyl-1,2,3,4-tetrahydropyrimidine-2,4-dione]
pest or weed control at 63 g/ha [1]: 100%
pest or weed control at 500 g/ha [1]: 100%
pest or weed control at 63 g/ha [2]: 100%
pest or weed control at 500 g/ha [2]: 100%
pest or weed control at 63 g/ha [3]: 90%
pest or weed control at 500 g/ha [3]: 100%

Nn1c(C(F)(F)F)cc(=O)n(-c2cc(Oc3ncccc3C(F)(F)F)c(Cl)cc2F)c1=O [Compound 9-7, 1-Amino-3-[4-chloro-2-fluoro-5-(3-trifluoromethyl-2-pyridyloxy)phenyl]-6-trifluoromethyl-1,2,3,4-tetrahydropyrimidine-2,4-dione]
pest or weed control at 63 g/ha [1]: 100%
pest or weed control at 500 g/ha [1]: 100%
pest or weed control at 63 g/ha [2]: 100%
pest or weed control at 500 g/ha [2]: 100%
pest or weed control at 63 g/ha [3]: 60%
pest or weed control at 500 g/ha [3]: 70%

Nn1c(C(F)(F)F)cc(=O)n(-c2cc(Oc3cc(C(F)(F)F)ccn3)c(Cl)cc2F)c1=O [Compound 9-8, 1-Amino-3-[4-chloro-2-fluoro-5-(4-trifluoromethyl-2-pyridyloxy)phenyl]-6-trifluoromethyl-1,2,3,4-tetrahydropyrimidine-2,4-dione]
pest or weed control at 63 g/ha [1]: 100%
pest or weed control at 500 g/ha [1]: 100%
pest or weed control at 63 g/ha [2]: 95%
pest or weed control at 500 g/ha [2]: 100%
pest or weed control at 63 g/ha [3]: 10%
pest or weed control at 500 g/ha [3]: 95%

N#Cc1cccnc1Oc1cc(-n2c(=O)cc(C(F)(F)F)n(N)c2=O)c(F)cc1Cl [Compound 9-9, 1-Amino-3-[4-chloro-2-fluoro-5-(3-cyano-2-pyridyloxy)phenyl]-6-trifluoromethyl-1,2,3,4-tetrahydropyrimidine-2,4-dione]
pest or weed control at 63 g/ha [1]: 100%
pest or weed control at 500 g/ha [1]: 100%
pest or weed control at 63 g/ha [2]: 90%
pest or weed control at 500 g/ha [2]: 100%
pest or weed control at 63 g/ha [3]: 10%
pest or weed control at 500 g/ha [3]: 100%

N#Cc1ccc(Oc2cc(-n3c(=O)cc(C(F)(F)F)n(N)c3=O)c(F)cc2Cl)nc1 [Compound 9-10, 1-Amino-3-[4-chloro-2-fluoro-5-(5-cyano-2-pyridyloxy)phenyl]-6-trifluoromethyl-1,2,3,4-tetrahydropyrimidine-2,4-dione]
pest or weed control at 63 g/ha [1]: 100%
pest or weed control at 500 g/ha [1]: 100%
pest or weed control at 63 g/ha [2]: 100%
pest or weed control at 500 g/ha [2]: 100%
pest or weed control at 63 g/ha [3]: 20%
pest or weed control at 500 g/ha [3]: 95%

Nn1c(C(F)(F)F)cc(=O)n(-c2cc(Oc3ccc([N+](=O)[O-])cn3)c(Cl)cc2F)c1=O [Compound 9-11, 1-Amino-3-[4-chloro-2-fluoro-5-(5-nitro-2-pyridyloxy)phenyl]-6-trifluoromethyl-1,2,3,4-tetrahydropyrimidine-2,4-dione]
pest or weed control at 63 g/ha [1]: 100%
pest or weed control at 500 g/ha [1]: 100%
pest or weed control at 63 g/ha [2]: 100%
pest or weed control at 500 g/ha [2]: 100%
pest or weed control at 63 g/ha [3]: 0%
pest or weed control at 500 g/ha [3]: 50%

Cc1nsc(Oc2cc(-n3c(=O)cc(C(F)(F)F)n(N)c3=O)c(F)cc2Cl)c1[N+](=O)[O-] [Compound 9-14, 1-Amino-3-[4-Chloro-2-fluoro-5-(3-methyl-4-nitroisothiazol-5-yloxy)phenyl]-6-trifluoromethyl-1,2,3,4-tetrahydropyrimidine-2,4-dione]
pest or weed control at 63 g/ha [1]: 100%
pest or weed control at 500 g/ha [1]: 100%
pest or weed control at 63 g/ha [2]: 95%
pest or weed control at 500 g/ha [2]: 100%
pest or weed control at 63 g/ha [3]: 10%
pest or weed control at 500 g/ha [3]: 100%

Nn1c(C(F)(F)F)cc(=O)n(-c2cc(Oc3ccccn3)c(Cl)cc2F)c1=O [Compound 9-15, 1-amino-3-[4-chloro-2-fluoro-5-(2pyridyloxy)phenyl]-6-trifluoromethyl-1,2,3,4-tetrahydropyrimidine-2,4-dione]
pest or weed control at 125 g/ha ([1]; rate 125 g ai/ha): 100%
pest or weed control at 500 g/ha [1]: 100%
pest or weed control at 125 g/ha ([2]; rate 125 g ai/ha): 100%
pest or weed control at 500 g/ha [2]: 100%
pest or weed control at 125 g/ha ([3]; rate 125 g ai/ha): 90%
pest or weed control at 500 g/ha [3]: 99%

Nn1c(C(F)(F)F)cc(=O)n(-c2cc(Oc3ncccn3)c(Cl)cc2F)c1=O [Compound 9-16, 1-Amino-3-[4-chloro-2-fluoro-5-(2-pyrimidyloxy)phenyl]-6-trifluoromethyl-1,2,3,4-tetrahydropyrimidine-2,4-dione]
pest or weed control at 63 g/ha [1]: 100%
pest or weed control at 500 g/ha [1]: 100%
pest or weed control at 63 g/ha [2]: 100%
pest or weed control at 500 g/ha [2]: 100%
pest or weed control at 63 g/ha [3]: 100%
pest or weed control at 500 g/ha [3]: 100%

Nn1c(C(F)(F)F)cc(=O)n(-c2cc(Oc3nccc(Cl)n3)c(Cl)cc2F)c1=O [Compound 9-17, 1-Amino-3-[4-chloro-2-fluoro-5-(4-chloro-2-pyrimidyloxy)phenyl]-6-trifluoromethyl-1,2,3,4-tetrahydropyrimidine-2,4-dione]
pest or weed control at 63 g/ha [1]: 100%
pest or weed control at 500 g/ha [1]: 100%
pest or weed control at 63 g/ha [2]: 100%
pest or weed control at 500 g/ha [2]: 95%
pest or weed control at 63 g/ha [3]: 0%
pest or weed control at 500 g/ha [3]: 60%

Nn1c(C(F)(F)F)cc(=O)n(-c2cc(Oc3ccccc3[N+](=O)[O-])c(Cl)cc2F)c1=O [Compound 9-21, 1-amino-3-[4-chloro-2-fluoro-5-(2-nitrophenoxy)phenyl]-6-trifluoromethyl-1,2,3,4-tetrahydropyrimidine-2,4-dione]
pest or weed control at 63 g/ha [1]: 100%
pest or weed control at 500 g/ha [1]: 100%
pest or weed control at 63 g/ha [2]: 100%
pest or weed control at 500 g/ha [2]: 100%
pest or weed control at 63 g/ha [3]: 70%
pest or weed control at 500 g/ha [3]: 100%
